The source of these data is ChEMBL document CHEMBL3046004, “Esterase-mediated resistance to pyrethroids in field populations of Helicoverpa armigera (Lepidoptera: Noctuidae) from Central Africa” (2009).

Common to all, as to assay type: functional
Test [1] concerns Helicoverpa armigera. The test is described as follows: Resistance factor, ratio of LD50 for fourth-instar larval stage of Helicoverpa armigera field strain Gaschiga isolated from tomato plant to LD50 for fourth-instar larval stage of pyrethroid-susceptible Helicoverpa armigera laboratory strain BK-77.
In test [2] the test system is Helicoverpa armigera. Put plainly: Resistance factor, ratio of LD50 for fourth-instar larval stage of Helicoverpa armigera field strain Ngong to LD50 for fourth-instar larval stage of pyrethroid-susceptible Helicoverpa armigera laboratory strain BK-77.
Test [3] relates to Helicoverpa armigera. The test is described as follows: Insecticidal activity against fourth-instar larval stage of Helicoverpa armigera field strain Pitoa isolated from tomato plant assessed as mortality applied topically onto thorax measured after 48 hr.
Test [4] deals with Helicoverpa armigera. The test is described as follows: Insecticidal activity against fourth-instar larval stage of Helicoverpa armigera field strain Pitoa isolated from maize plant assessed as mortality applied topically onto thorax measured after 48 hr.
The subject of test [5] is Helicoverpa armigera. Put plainly: Insecticidal activity against fourth-instar larval stage of Helicoverpa armigera field strain Tchollire isolated from cotton plant assessed as mortality applied topically onto thorax measured after 48 hr.
The subject of test [6] is Helicoverpa armigera. The test is described as follows: Insecticidal activity against fourth-instar larval stage of pyrethroid-resistance Helicoverpa armigera laboratory strain GS-RR06 assessed as mortality applied topically onto thorax measured after 48 hr.
Test [7] has as its system Helicoverpa armigera. Put plainly: Insecticidal activity against fourth-instar larval stage of pyrethroid-susceptible Helicoverpa armigera laboratory strain BK-77 assessed as mortality applied topically onto thorax measured after 48 hr.
Test [8] deals with Helicoverpa armigera. The test is described as follows: Resistance factor, ratio of LD50 for fourth-instar larval stage of Helicoverpa armigera field strain Pitoa isolated from tomato plant to LD50 for fourth-instar larval stage of pyrethroid-susceptible Helicoverpa armigera laboratory strain BK-77.
Test [9] has as its system Helicoverpa armigera. The test is described as follows: Resistance factor, ratio of LD50 for fourth-instar larval stage of Helicoverpa armigera field strain Tchollire to LD50 for fourth-instar larval stage of pyrethroid-susceptible Helicoverpa armigera laboratory strain BK-77.
Test [10] deals with Helicoverpa armigera. Put plainly: Resistance factor, ratio of LD50 for fourth-instar larval stage of Helicoverpa armigera field strain Pitoa isolated from maize plant to LD50 for fourth-instar larval stage of pyrethroid-susceptible Helicoverpa armigera laboratory strain BK-77.
For test [11], the system named is Helicoverpa armigera. Put plainly: Resistance factor, ratio of LD50 for fourth-instar larval stage of pyrethroid-resistance Helicoverpa armigera laboratory strain GS-RR06 to LD50 for fourth-instar larval stage of pyrethroid-susceptible Helicoverpa armigera laboratory strain BK-77.
The subject of test [12] is Helicoverpa armigera. Put plainly: Insecticidal activity against fourth-instar larval stage of Helicoverpa armigera field strain Gaschiga isolated from tomato plant assessed as mortality applied topically onto thorax measured after 48 hr.
Test [13] has as its system Helicoverpa armigera. The test is described as follows: Insecticidal activity against fourth-instar larval stage of Helicoverpa armigera field strain Ngong isolated from cotton plant assessed as mortality applied topically onto thorax measured after 48 hr.

On to `CCOc1ccc(C(C)(C)COCc2cccc(Oc3ccccc3)c2)cc1` [ETOFENPROX], for which the Ratio in test [1] stood at 4; in test [2], 2; in [8] it was 10; in test [9] it was 3; in test [10], 5; in [11] it was 2. In addition, the LD50 in test [3] was 531.4 microgAi/g; in [4], 285.3 microgAi/g; in test [5], 152.2 microgAi/g; in test [6] it was 135.7 microgAi/g; in test [7], 55.5 microgAi/g; in test [12], 229.3 microgAi/g. Moreover, the LD50 in [13] was 136.6 microgAi/g.
On to `CCCSP(=O)(OCC)Oc1ccc(Br)cc1Cl` (configuration not stated) [PROFENOFOS], for which the Ratio in test [1] was found to be 5.3; in [2], 4; in test [8], 7.9; in test [10] it was 4.2; in test [11] it was 3.9. Also, the LD50 in test [3] is recorded as 36.2 microgAi/g; in test [4] it was 19.5 microgAi/g; in [6], 17.7 microgAi/g; in [7] it was 4.6 microgAi/g; in test [12], 24.3 microgAi/g; in test [13], 18.5 microgAi/g.
On to `CC1(C)[C@H](C(=O)O[C@H](C#N)c2cccc(Oc3ccccc3)c2)[C@@H]1C=C(Br)Br` [DELTAMETHRIN], for which the Ratio in [1] is given as 316; in [2], 134; in [8] it was 756; in test [9] it was 60; in [10] it was 590; in [11] it was 2972. The LD50 in test [3] was 37.8 microgAi/g; in test [4], 29.5 microgAi/g; in [5] it was 3 microgAi/g; in test [6] it was 148.6 microgAi/g; in [7], 0.05 microgAi/g; in test [12] it was 15.8 microgAi/g. Moreover, the LD50 in [13] was 6.7 microgAi/g.
With `Clc1ccc(C(c2ccc(Cl)cc2)C(Cl)(Cl)Cl)cc1` [CHLOROPHENOTHANE], the Ratio in [1] turned out to be 1.4; in [2], 1.4; in test [8] it was 1.3; in [9], 1; in test [10] it was 1.9; in test [11] it was 1. Besides, the LD50 in [3] was 34.8 microgAi/g; in test [4], 48.9 microgAi/g; in [5] it was 26.7 microgAi/g; in test [6], 26.1 microgAi/g; in test [7], 24.3 microgAi/g; in test [12], 37.4 microgAi/g. In test [13], the LD50 came out at 36.8 microgAi/g.
In the case of `COC(=O)N(C(=O)N1CO[C@@]2(C(=O)OC)Cc3cc(Cl)ccc3C2=N1)c1ccc(OC(F)(F)F)cc1` [INDOXACARB], the Ratio in [1] is 0.4; in test [2], 1.4; in [8], 2; in [10] it was 1.1; in test [11], 1. In addition, the LD50 stood at 1.3 microgAi/g in test [3]; 0.7 microgAi/g in [4]; 0.7 microgAi/g in test [6]; 0.7 microgAi/g in [7]; 0.3 microgAi/g in [12]; 0.9 microgAi/g in test [13].
On to `O=S1OCC2C(CO1)C1(Cl)C(Cl)=C(Cl)C2(Cl)C1(Cl)Cl` (configuration not stated) [ENDOSULFAN], for which the Ratio is reported as 0.7 in test [1]; 0.1 in [2]; 1 in [8]; 1 in test [10]; 0.7 in test [11]. In addition, the LD50 was found to be 36.2 microgAi/g in test [3]; 37.9 microgAi/g in [4]; 27.5 microgAi/g in test [6]; 37.6 microgAi/g in test [7]; 25.9 microgAi/g in [12]; 34 microgAi/g in [13].
